Laboratory results: patent publication US9655877B2, “Therapeutic methods for treating inflammation and immune system disorders” (priority 2009, dated 2017)
Several values for one entry are separate records, joined by “and”; a condition that tells them apart may be missing. Equal values may be shown once.

Tests used:
[1] = tested on: nitrite production in BV-2 cells; experiment: LPS-induced nitrite (nitric oxide) production in BV-2 cells, Griess reagent; assay type: cell-based, murine; conditions: 100 ng/ml LPS, 1-50 μg/ml, 18 hours
Method: Nitrite levels in the culture media were determined using Griess reagent under manufacturer's instructions (Sigma Aldrich, St. Louis, Mo.). Fresh culture media were used as blanks and the nitrite levels were determined by using a standard sodium nitrite curve.
The effect of each extract on nitric oxide production is evaluated according to the procedures illustrated as follows. Briefly, murine microglia cell line BV-2 is maintained in Dulbecco's modified Eagle's minimum essential medium (DMEM) supplemented with 10% FBS and 1% penicillin and streptomycin (Invitrogen Life Technologies, Carlsbad, Calif.) at 37° C. in a humidified atmosphere with 5% CO2 in warm air.
0.1 M cells/ml BV-2 cells are seeded in 24-well plates (0.5 ml in each well). Cells are treated with 0.05% DMSO; 0.05% DMSO and 100 ng/ml LPS; or 100 ng/ml LPS and 50 μg/ml of an LCX extract for 18 hours, respectively. The culture supernatant is collected. The nitric oxide level is measured using the Griess reagent according to standard manufacturer's instructions (Sigma Aldrich, St. Louis, Mo.), and assessed using the standard sodium nitrite curve.
The effect of senkyunolide A (Sen A) and Z-ligustilide (Z-Lig) at various concentrations on LPS-induced nitrite production is further evaluated in this Example. Briefly, 0.1 M cells/ml BV-2 cells are seeded in 24-well plates (0.5 ml in each well). Cells are treated with 0.05% DMSO; 0.05% DMSO and 100 ng/ml LPS; 50 μg/ml Sen A/Z-Lig; or 100 ng/ml LPS and Sen A/Z-Lig at a concentration of 1 μg/ml, 5 μg/ml, 10 μg/ml, 25 μg/ml, and 50 μg/ml for 18 hours, respectively. The culture supernatant is collected. The nitric oxide level is measured using the Griess reagent according to standard manufacturer's instructions (Sigma Aldrich, St. Louis, Mo.), and evaluated using the standard sodium nitrite curve.

[2] = tested on: TNF-α production in human blood macrophages; experiment: LPS-induced TNF-α production in human blood macrophages (PBMac), ELISA; assay type: cell-based; conditions: 25 or 50 μg/ml for 24 hours, then 1 ng/ml LPS for 24 hours
Method: To measure the TNF-α level in cell culture supernatants, BV-2 cells were seeded at 1×10^5 cells/ml in the volume of 0.5 ml in 24-well culture plates. They were co-treated with or without 100 ng/ml LPS in the absence or presence of indicated concentrations of bioactive compounds of LCX for 18 h. In addition, PBMac cells were seeded at 1×10^6 cells/ml in the volume of 0.5 ml in 24-well plates. After incubation, the supernatants were collected and TNF-α levels were determined by ELISA according to the manufacturer's instructions (R&D Systems). […] To study the effect of Sen A and Z-Lig at various concentrations on TNF-α production, 1×10^6 cells/ml (FIG. 6) PBMac cells are seeded in 24-well plates (0.5 ml in each well). Cells are treated with 25 μg/ml or 50 μg/ml Sen A, Z-Lig, or DMSO for 24 hours prior to the addition of 1 ng/ml LPS, and further incubated for another 24 hours. The culture supernatants are collected and the level of secreted TNF-α is measured by ELISA according to the manufacturer's instructions (R&D Systems, Minneapolis, Minn.).

[3] = tested on: TNF-α protein production in BV-2 cells; experiment: LPS-induced TNF-α protein production in BV-2 cells, ELISA; assay type: cell-based, murine; conditions: 100 ng/ml LPS, 18 hours
Method: To measure the TNF-α level in cell culture supernatants, BV-2 cells were seeded at 1×10^5 cells/ml in the volume of 0.5 ml in 24-well culture plates. They were co-treated with or without 100 ng/ml LPS in the absence or presence of indicated concentrations of bioactive compounds of LCX for 18 h. In addition, PBMac cells were seeded at 1×10^6 cells/ml in the volume of 0.5 ml in 24-well plates. After incubation, the supernatants were collected and TNF-α levels were determined by ELISA according to the manufacturer's instructions (R&D Systems).
The role of senkyunolide A (Sen A) and Z-ligustilide (Z-Lig) in suppressing TNF-α production is further evaluated in this Example. Briefly, 5×10^4 cells/ml BV-2 cells are seeded in 24-well plates (0.5 ml in each well). Cells are treated with 0.05% DMSO; 0.05% DMSO and 100 ng/ml LPS; 50 μg/ml Sen A/Z-Lig; or 100 ng/ml LPS and Sen A/Z-Lig at a concentration of 1 μg/ml, 5 μg/ml, 10 μg/ml, 25 μg/ml, and 50 μg/ml for 18 hours, respectively. The culture supernatant is collected and the level of secreted TNF-α is measured by ELISA.

[4] = tested on: Neuro-2a cells; experiment: Conditioned culture medium transfer model (LPS-treated BV-2 supernatant on Neuro-2a), MTT assay; assay type: cell-based, murine; conditions: supernatant of BV-2 cells treated with 100 ng/ml LPS and 50 μg/ml compound 18 h, on Neuro-2a 48 h; LPS only more than 40%
Method: BV-2 cells (3×10^5 cells/ml) were first treated with 100 ng/ml LPS for 18 h, in the presence of either 0.05% DMSO or 50 μg/ml senkyunolide A or Z-ligustilide. After centrifugation, the supernatants from BV-2 cells were transferred to Neuro-2a cells ([…]) for 48 h. Viability of Neuro-2a cells was measured using MTT assays. Results are shown as mean SD from three independent experiments. *p<0.05 compared with DMSO+LPS.
BV-2 cells were seeded at 3×10^5 cells/ml in 12-well culture plates (1 ml in each well). They were co-treated with or without 100 ng/ml LPS, in the presence of 0.05% DMSO, 50 μg/ml senkyunolide A, or 50 μg/ml Z-ligustilide, for 18 h. The supernatants were then collected and centrifuged at 13,200 rpm for 3 min. The resulting supernatants were then transferred to Neuro-2a cells (1×10^5 cells/ml in 24-well culture plates), which were incubated for another 48 h. Cell viability of Neuro-2a cells was measured by MTT assay.
Briefly, to investigate the physiological significance of Sen A and Z-Lig, a conditioned culture medium transfer model, commonly used for studying neuronal cell death induced by microglial activation, was adopted. After BV-2 cells were challenged with LPS, the supernatants were collected and centrifuged. The conditioned culture media were then transferred to Neuro-2a cell cultures.

[5] = tested on: Neuro-2a cells; experiment: Neuro-2a cells treated with compound alone in the culture media; assay type: cell-based, murine; conditions: compound alone in the culture media (data not shown)
From the text: Specifically, a significant reduction in cell death, to less than 15% and 25%, respectively, was observed.

CCC/C=C1\OC(=O)C2=C1CCC=C2 [Z-ligustilide]
effect on nitrite production over concentrations [1]: inhibits nitrite production in a dose-dependent manner
effect on endotoxin-induced TNF-α production [2]: suppress endotoxin-induced TNF-α production in a dose-dependent manner
effect on TNF-α production over concentrations ([3]; 1-50 μg/ml): inhibits TNF-α production in a dose-dependent manner
concentration that significantly inhibits TNF-α production [3]: 10 µg/mL and > 10 µg/mL
cell death of Neuro-2a cells [4]: < 25%
cell death with compound alone [5]: did not show cell death
